Test results taken from patent US20130324555A1, “Method of use of pharmaceutical formulations for the treatment of apicomplexan diseases in animals” (priority 2012, published 2013).
Entries after “also recorded” stand apart in the source; their conditions may differ. Like-named read-outs stand apart in the source and are kept apart here.

Legend:
[1] = system: THdhxgTRP tachyzoites transfected with pLK47; assay: Insertional mutagenesis experiments (selection of resistant mutants); type: cell-based, T. gondii; settings: prolonged incubation (six weeks)
Protocol: Insertional mutagenesis experiments were performed.
THdhxgTRP tachyzoites were transfected with pLK47 vector plasmid. Parasites were extracted from HFF cells and resuspended in 1 mL cytomix electroporation buffer solution (120 mM KCl, 150 uM CaCl2, 5 mM K2HPO4, 5 mM KH2PO4, 25 mM HEPES, 2 mM EDTA and 5 mM MgCl2 in sterile H2O). Equivalent amounts of plasmid DNA and cytomix solution containing 10×10^7 parasites were combined for a total volume of 400 uL and electroporated using BioRad electroporator at 1.5 k, […] and 100Ω. […] Successfully transfected parasites were selected by month-long treatment with mycophenolic acid (25 ug/mL) and xanthine (50 ug/mL). After one month, the mixed mutant population were exposed to 3i, 3j, 7a or 14b to select for those mutants whose gene disruption conferred resistance to the drug.

[2] = system: P. falciparum D6 (CDC/Sierra Leone); assay: Malaria SYBR Green 1-Based Fluorescence (MSF) Assay, strain D6; type: cell-based; settings: for IC50: Plasmodium falciparum
Protocol: Compound activity against P. falciparum, the causative agent of malaria, was assessed using the Malaria SYBR Green 1-Based Fluorescence (MSF) Assay. This microtiter plate drug sensitivity assay uses the presence of malarial DNA as a measure of parasitic proliferation. The assay is a microtiter plate drug sensitivity assay that uses the presence of malarial DNA as a measure of parasitic proliferation in the presence of antimalarial drugs or experimental compounds based on modifications of previously described methods (Plouffe et al., Proc Natl Acad Sci USA. 2008, 105, 9059-9064), (Johnson et al., Antimicrob. Agents Chemother. 2005, 49, 3463-3467).
Selected compounds were examined for activity against two strains of P. falciparum: D6 (CDC/Sierra Leone), a drug-sensitive and readily killed by chloroquine, and TM90-C235, a multi-drug resistant strain resistant to chloroquine.
D6 (CDC/Sierra Leone) and TM90-C235 (WRAIR, Thailand) laboratory strains of P. falciparum were used for each drug sensitivity assessment. The parasite strains were maintained continuously in long-term cultures as previously described in Johnson et al, and P. falciparum strains in late-ring or early-trophozoite stages were cultured in predosed 384-well microtiter drug assay plates in 38 μl culture volume per well at a starting parasitemia of 0.3% and a hematocrit of 2%. Pre-dosed, sterile, 384 well black optical bottom microtiter drug plates for use in the MSF assay were produced using a Tecan EVO Freedom Liquid Handling System (Tecan US, Durham, N.C.). Dose response plates were produced at a final concentration ranging from 0.5-10000 ng/ml in quadruplicate (twelve two-fold serial dilutions of each test compound or chloroquine control in DMSO. Each run was validated by a batch control plate with chloroquine (Sigma-Aldrich Co., Catalog #C6628) at a final concentration of 2000 ng/ml. The cultures were incubated for 72 hours at 37° C., 5% CO2, 5% O2 and 90% N2. Lysis buffer (38 μl per well), consisting of 20 mM Tris HCl, 5 mM EDTA, 1.6% Triton X, 0.016% saponin, and SYBR green I dye at a 20× concentration (Invitrogen, Catalog #S-7567) was then added to the assay plates utilizing the Tecan EVO Freedom system for a final SYBR Green concentration of 10×. Plates were incubated in the dark at room temperature in the dark for 24 hours.
Compound activity was assessed by examining for the relative fluorescence units (RFU) per well using the Tecan Genios Plus (Tecan US, Inc., Durham, N.C.). GraphPad Prism (GraphPad Software Inc., San Diego, Calif.) using the nonlinear regression (sigmoidal dose-response/variable slope) equation was used to determine IC50 values.

HFF cells = assay: In vitro toxicity assay on host cells ([3H]-thymidine incorporation or WST-1); type: cell-based, Human; settings: for Toxicity: HFF cells
Protocol: Determination of the anti-apicomplexan activity of Compounds of Formula I may be determined by one skilled in the art. Parasite proliferation was monitored by using stably transfected type I RH-YFP parasites, which constitutively express Yellow Florescent Protein. Proliferation also was tested using a [^3H]-Uracil incorporation assay, as Uracil is incorporated into nucleic acids of T. gondii tachyzoites, but not mammalian cells, as they divide. Complimentary challenge assays ensured that the observed fluorescence data was due to parasite inhibition and not to quenched fluorescence. Pyrimethamine and sulfadiazine were used as positive controls, and DMSO at a concentration of 0.1% was used as the negative control. Because T. gondii is an obligate parasite, compounds that are toxic to host cells will appear to inhibit parasite growth. Therefore, all test compounds were simultaneously evaluated for efficacy and toxicity against human cells.
HFF cells were grown to 30% confluence in 96-well plates.
Inhibitory compounds and control media were added to wells in concentrations equal to those being tested in challenge assays. After 72 hours, [^3H]-Thymidine incorporation assay was conducted to assess cell growth. Alternatively, toxicity was assessed using WST-1 cell proliferation reagent (Roche). Confluent HFF cells were treated with inhibitory and control compounds. On the final day of experiment, 10 uL of WST-1 reagent was added to each well. Plates were incubated for 1 hour in the dark at 37° C., and absorbance was measured using Synergy H4 Hybrid Reader (BioTek) fluorometer at […].

[3] = In vivo oral toxicity in mice; settings: for toxic effects when dosed orally: gavage daily for nine days, 100 mg/kg; for signs of toxicity in mice, in words: mouse, in vivo
Protocol: Selected compounds were evaluated for in vivo efficacy against T. gondii and P. falciparum. To asses toxic effects when administered orally, selected compounds were administered orally to mice daily for nine days at a dose of 100 mg/kg. At the end of the ten days, the animals were evaluated for toxic effects.
Todetermine whether 14a or 14b exerted toxic effects when dosed orally, each compound was administered by gavage to mice daily for nine days at a dose of 100 mg/kg.
HLA B07 transgenic mice were produced at Pharmexa-Epimmune (San Diego, Calif., USA) and bred at the University of Chicago. All studies were conducted with Institutional Animal Care and Use Committee at the USDA, the University of Chicago, and the University of Strathclyde.

[4] = D6, chloroquine-sensitive strain D6, read-out: D6 IC50
[5] = D6, chloroquine-sensitive strain D6, read-out: D6 IC50 (molar)
[6] = chloroquine-sensitive strain D6

| Compound | parasite growth of mixed mutant population in the presence of compound [1] | IC50 [2, 4] | IC50 [2, 5] | D6 IC50 [2, 6] | toxicity to human host cells, in words (HFF cells) | Toxicity (HFF cells) | IC50 ([2]; chloroquine-sensitive strain D6, read-out: D6 IC50) | toxic effects when dosed orally [3] | signs of toxicity in mice, in words [3] | IC50 ([2]; D6, read-out: D6 IC50) | parasite growth of mixed mutant population in the presence of compound ([1]; hydrochloride) |
| --- | --- | --- | --- | --- | --- | --- | --- | --- | --- | --- | --- |
| CC(C)(C)c1cccc(NC(=O)c2cc(Cl)ccc2O)c1 [Compound 3i, N-(3-tert-butylphenyl)-5-chloro-2-hydroxybenzamide] | No parasite growth was observed; also recorded: No parasite growth was noted | 0.957 µg/mL | 3000 nM | 956.9 ng/mL | not toxic to human host cells | >1000 nM | – | – | – | – | – |
| O=C(Nc1cc(C(F)(F)F)cc(C(F)(F)F)c1)c1cc(Cl)ccc1O [Compound 3j] | No parasite growth was observed; also recorded: No parasite growth was noted | – | – | – | not toxic to human host cells | >1000 nM | 0.593 µg/mL | – | – | – | – |
| O=C(Oc1ccc(Cl)cc1C(=O)Nc1ccc([N+](=O)[O-])cc1Cl)c1ccccc1 [Compound 7a, 4-chloro-2-((2-chloro-4-nitrophenyl)carbamoyl)phenyl benzoate] | No parasite growth was observed; also recorded: No parasite growth was noted | 0.295 µg/mL | 700 nM | 294.6 ng/mL | not toxic to human host cells | >1000 nM | – | – | – | – | – |
| CN(CC(=O)NN)C(=O)Oc1ccc(Cl)cc1C(=O)Nc1ccc([N+](=O)[O-])cc1Cl.Cl [Compound 14a, 4-chloro-2-((2-chloro-4-nitrophenyl)carbamoyl)phenyl (2-hydrazinyl-2-oxoethyl)(methyl)carbamate hydrochloride] | – | – | – | – | not toxic to human host cells | >1000 nM | – | all mice were alive and appeared healthy | no signs of toxicity | 1.33 µg/mL | – |
| CN(CC(=O)NN)C(=O)Oc1ccc(Cl)cc1C(=O)Nc1ccc(C(F)(F)F)cc1C(F)(F)F.Cl [Compound 14b, 2-((2,4-bis(trifluoromethyl)phenyl)carbamoyl)-4-chlorophenyl (2-hydrazinyl-2-oxoethyl)(methyl)carbamate hydrochloride] | – | – | – | – | not toxic to human host cells | >1000 nM | – | all mice were alive and appeared healthy | no signs of toxicity | – | No parasite growth was observed; also recorded: No parasite growth was noted |
